Reference: US20130095059A1, “INHALED NO DONOR KMUPS DERIVATIVE PREVENTING ALLERGIC PULMONARY VASCULAR AND BRONCHIAL INFLAMMATION VIA SUPPRESSED CYTOKINES, INOS AND INFLAMMATORY CELL COUNTS IN ASTHMA MODEL” (priority 2007, published 2013)

What was measured:
5-HTT = 5-HTT expression in pulmonary artery and lung of MCT-treated rats; type: in vivo; conditions: 21 days after MCT
Method: The experiments were performed in adult male Wistar rats (300 to 350 g) in accordance with institutional guidelines after approval by the ethical review committee. PAH development and pulmonary expression of 5-HTT were examined in rats after 60 mg/kg single injection (i.p.) of monocrotaline (MCT). To assess the potential preventive effect of KMUP-1 on MCT-induced PAH and associated proliferation, we assigned rats at random to 2 groups of 8 animals which received KMUP-1 at 5 mg/kg/day p.o or 1 mg/kg/day i.p. All treatments were given once a day for 3 weeks after a single MCT injection (60 mg/kg i.p.) (Abe et al., 2004). On day 21, rats were anesthetized and pulmonary artery blood pressure (MPAP) was recorded as previously described. Lung tissues were dissected for Western blotting and immunohistochemistry.
For 5-HTT immunostaining, the lung slides were dewaxed in 100% xylene, and the sections were then rehydrated by successive immersion first in decreasing ethanol concentrations (100%, 90%, 80%, 50% and 30%) and then in water. Endogenous peroxidase activity was blocked using H2O2 in methanol (0.3% vol/vol) for 10 min. After three PBS washes, sections were pre-incubated in PBS supplemented with 3% (wt/vol) BSA for 30 min, then incubated overnight at 4° C. with goat polyclonal anti-5-HTT antibody (Abcam Biotechnology, Cambridge, UK) diluted to 1:1000 in 1×PBS, 0.02% BSA. […]

5-HT2A receptor = biological target: T1, 5-HT2A receptor (Homo sapiens, UniProt P28223); assay: Displacement of radioligand binding, 5-HT2A; conditions: [^3H]-ketanserin, human recombinant CHO-K1 cells
T1 construct: full length clones of 5-HT2A, 5-HT2B and 5-HT2C receptor were prepared from CHO-K1 cells; expressed in transfected cells; host or cells: CHO-K1
Method: Displacement of Radioligand Binding Assay
As described previously, full length clones of 5-HT2A, 5-HT2B and 5-HT2C receptor were prepared from CHO-K1 cells. […] IC50 represents the concentration of competing ligand which displaces 50% of the specific binding of the radioligand. Ki values for competition curves were calculated using the Cheng-Prusoff equation (Cheng, 2001).

PASMCs [1] = assay: PASMCs [Ca2+]i measurement (Fura-2/AM); type: cell-based, Wistar rats
Method: Wistar rats were anesthetized with an overdose of sodium pentobarbital (60 mg/kg) and the skin was sterilized with 75% alcohol. The chest was opened and the heart and lung were removed. The organs were rinsed several times in PBS. The pulmonary artery were segregated in a sterile manner. The outer sphere was peeled and the microtubule was snipped visually, and endothecia were shaved lightly 2-3 times in order to remove endothelial cells. The tunica media was prepared into scraps (1 mm^3) in DMEM (Dulbecco's modified Eagle's medium). PASMCs were cultured in DMEM containing 10% fetal bovine serum (5% CO2 at 37° C.). The culture medium was changed every 3 days and cells were subcultured until confluence. Primary cultures of 2-4 passages were used in the experiments. Cells were examined by immunofluorescence staining of α-actin to confirm the purity of PASMCs.
The measurement of [Ca^2+]i in PASMCs was performed using a spectrofluorophotometer as previously reported. PASMCs, cultured for 2-4 passages and re-suspended by trypsin, were loaded with Fura-2/AM for the measurement of [Ca^2+]i changes in cells within the cuvette by spectrofluorophotometer (Shimadzu, RF-5301PC, Shimadzu, Japan). KMUP-1 was applied 5 min before application of 5-HT (10 μM).

pulmonary artery rings = assay: Isometric force of 5-HT-constricted pulmonary artery rings; set-up: species or system Wistar rats
Method: Wistar rats were euthanized with an overdose of sodium pentobarbital (60 mg/kg, i.p.) before open-chest surgery. During surgery, a thoracic retractor was used to help isolate the pulmonary artery. […] The pulmonary artery ring preparations were stretched to a basal tension of 1 g and allowed to equilibrate for 60-90 min. After equilibration, pulmonary artery rings were constricted with 5-HT (10 μM) to prime the tissues and check the functionality of the endothelium (at least 80% relaxation in response to acetylcholine 1 μM). […] The effect of KMUP-1 on NOS and 5-HT was also studied in vessels pre-incubated with the NOS inhibitor L-NAME (100 μM) 20 min before 5-HT administration. The percentage of relaxation was estimated using the following equation: relaxation (%)=(maximal contraction−relaxation level)/(maximal contraction-basal level)×100. Data was obtained from serotonin-induced maximal contractile responses in pulmonary artery.

PASMCs [2] = assay: Microculture tetrazolium test (MTT), PASMCs proliferation; type: cell-based, Wistar rats; conditions: 1-100 μM; 5-HT 10 μM 24 h
Method: At the end of this period, MTT (2 g/L) was added to each well, and incubation proceeded at 37° C. for 4 h. Thereafter, the medium was removed and the cells were solubilized in 150 μL DMSO.

BALF cells = assay: Ovalbumine model, bronchoalveolar lavage cell counts; type: in vivo, BALB/c mice; conditions: 24 hrs after the last ovalbumine challenge; nebulization
Method: In this long-term experiment, 6-8 week old BALB/c female mice were sensitized on days 1 and 8 by intra-peritoneal injection (i.p.) of ovalbumine (10 μg) (Sigma-Aldrich, Schnelldorf, Germany) adsorbed to 2 mg aluminum hydroxide (AlumInject; Perbio, Erembodegem, Belgium). Mice were divided into three groups. In Group 1, a control group was only exposed to saline nebulization by aerosol. The other 2 groups were subjected to ovalbumine (1%) nebulization. Before each challenge with ovalbumine, mice were either exposed to saline nebulization (Group 2) or KMUP-1 nebulization (5 mM) for 30 min by aerosol (Group 3).
After the sacrifice of mice, a cannula was placed in the trachea for bronchoalveolar lavage by gentle manual aspiration, using cold PBS-EDTA (0.05 mM, 1 ml) (Calbiochem, Darmstadt, Germany) as previously described (Cataldo D D, et al., 2002). The broncho alveolar lavage fluid (BALF) was centrifuged at 4° C. for 10 min (1200 rpm). The supernatant was frozen at −80° C. for protein assessment and the cell pellet was resuspended in PBS-EDTA (0.05 mM, 1 ml). Total cell counts were performed manually using a thoma chamber. The differential cell counts were performed using morphologic criteria on cytocentrifuged preparations (Cytospin) after staining with Diff-Quick (Dade, Belgium). Differential cell counts were performed by one blinded observer unaware of the experimental treatment.

T1 sequence (P28223 whole entry): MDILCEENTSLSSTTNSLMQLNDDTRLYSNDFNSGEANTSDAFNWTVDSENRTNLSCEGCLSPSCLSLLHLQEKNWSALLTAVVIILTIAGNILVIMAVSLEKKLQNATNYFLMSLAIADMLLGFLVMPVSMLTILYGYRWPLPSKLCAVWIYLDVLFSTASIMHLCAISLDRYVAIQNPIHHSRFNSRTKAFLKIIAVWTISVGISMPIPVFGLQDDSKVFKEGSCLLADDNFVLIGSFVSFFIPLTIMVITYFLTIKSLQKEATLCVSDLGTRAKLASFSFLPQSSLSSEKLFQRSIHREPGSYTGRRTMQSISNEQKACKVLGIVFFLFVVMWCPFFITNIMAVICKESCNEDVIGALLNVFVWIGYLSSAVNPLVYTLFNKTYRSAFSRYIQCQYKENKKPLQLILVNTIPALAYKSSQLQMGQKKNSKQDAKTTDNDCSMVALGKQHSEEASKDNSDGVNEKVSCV

SMILES: Cn1c(=O)c2c(ncn2CCN2CCN(c3ccccc3Cl)CC2)n(C)c1=O [KMUP-1, 7-[2-[4-(2-chlorophenyl)piperazinyl]ethyl]-1,3-dimethylxanthine]
- 5-HTT protein expression in lung tissue (Western blotting) (5-HTT): significantly reduced
- 5-HTT expression in pulmonary artery (immunochemistry) (5-HTT; 5 mg/kg p.o. and 1 mg/kg i.p.): significantly decreased
- IC50 (5-HT2A receptor): 340 nM
- Ki (5-HT2A receptor; Cheng-Prusoff): 97.1 nM
- inhibition of sustained [Ca^2+]i response to 5-HT (PASMCs [1]; 10 μM): 65%
- 5-HT-induced elevation of [Ca^2+]i (PASMCs [1]; 0.1-100 μM, 5-HT 10 μM): concentration-dependently inhibited
- 5-HT (10 μM) contractile response in pulmonary artery (pulmonary artery rings; 0.1-100 μM): inhibited
- maximum response of pulmonary artery to 5-HT (pulmonary artery rings; 10-100 μM, in the presence of L-NAME (100 μM)): reduced the maximum response
- PASMCs proliferation (MTT assay) (PASMCs [2]): dose-dependently inhibited
- increase in total cells, lymphocytes and eosinophils in the airway lumen (BALF cells): significantly reduced
